{"source": "ChEMBL document CHEMBL4130359", "about": "“Indazole-based ligands for estrogen-related receptor α as potential anti-diabetic agents” (Eur J Med Chem, 2017)", "key": {"[1]": {"system": "Rattus norvegicus", "assay": "Toxicity in Zucker rat sub-chronic fa/fa prediabetic model assessed as increase in food consumption at 10 mg/kg, po qd during 10 days study", "assay_type": "organism-based", "settings": "in vivo, 240 h"}, "[2]": {"assay": "AUC (0 to 24 hrs) in Zucker rat sub-chronic fa/fa prediabetic model at 50 mg/kg, po qd measured on day 1 post dose", "assay_type": "ADME, organism-based", "design": "dose 50 mg/kg, time < 24 hr, route oral", "settings": "in vivo"}, "[3]": {"assay": "Terminal half life in ob/ob mouse at 18 mg/kg administered via oral gavage by LC-MS analysis", "assay_type": "ADME, organism-based", "settings": "in vivo, read-out: beta t1/2 (converted)"}, "[4]": {"system": "Rattus norvegicus", "assay": "Effect on NDUFA5 gene expression in epididymal white adipose tissue of Zucker rat sub-chronic fa/fa prediabetic model at 10 mg/kg, po qd for 15 days by microarray analysis relative to control", "assay_type": "functional"}, "[5]": {"system": "Rattus norvegicus", "assay": "Effect on IGFBP4 gene expression in epididymal white adipose tissue of Zucker rat sub-chronic fa/fa prediabetic model at 10 mg/kg, po qd for 15 days by microarray analysis relative to control", "assay_type": "functional"}, "[6]": {"system": "Rattus norvegicus", "assay": "Effect on ME1 gene expression in epididymal white adipose tissue of Zucker rat sub-chronic fa/fa prediabetic model at 10 mg/kg, po qd for 15 days by microarray analysis relative to control", "assay_type": "functional"}, "[7]": {"system": "Rattus norvegicus", "assay": "Toxicity in Zucker rat sub-chronic fa/fa prediabetic model assessed as triglyceride level per gram liver at 50 mg/kg, po qd for 31 days measured on day 32 (reference value: 163.4 +/- 8.3 mg)", "assay_type": "organism-based", "settings": "in vivo, 744 h"}, "[8]": {"system": "Rattus norvegicus", "assay": "Effect on CPT2 gene expression in epididymal white adipose tissue of Zucker rat sub-chronic fa/fa prediabetic model at 10 mg/kg, po qd for 15 days by microarray analysis relative to control", "assay_type": "functional"}, "[9]": {"assay": "Cmax in Zucker rat sub-chronic fa/fa prediabetic model at 50 mg/kg, po qd for 26 days measured on day 26 post last dose", "assay_type": "ADME, organism-based", "design": "dose 50 mg/kg, route oral", "settings": "in vivo"}, "[10]": {"system": "Rattus norvegicus", "assay_type": "functional, Zucker"}, "[11]": {"system": "Rattus norvegicus", "assay": "Toxicity in Zucker rat sub-chronic fa/fa prediabetic model assessed as serum creatinine level at 10 mg/kg, po qd for 31 days measured on day 32 (reference value: 0.71 +/- 0.07 mg/dl)", "assay_type": "organism-based", "settings": "in vivo, 744 h"}, "[12]": {"system": "Rattus norvegicus", "assay": "Effect on NFATC4 gene expression in epididymal white adipose tissue of Zucker rat sub-chronic fa/fa prediabetic model at 10 mg/kg, po qd for 15 days by microarray analysis relative to control", "assay_type": "functional"}, "[13]": {"assay": "Cmax in […] chronic ob/ob model at 10 mg/kg, po qd for 28 days measured on day 28 post last dose", "assay_type": "ADME, organism-based", "design": "dose 10 mg/kg, route oral", "settings": "in vivo"}, "[14]": {"system": "Rattus norvegicus", "assay": "Effect on UGP2 gene expression in epididymal white adipose tissue of Zucker rat sub-chronic fa/fa prediabetic model at 10 mg/kg, po qd for 15 days by microarray analysis relative to control", "assay_type": "functional"}, "[15]": {"system": "Rattus norvegicus", "assay": "Antidiabetic activity in […] chronic ob/ob model assessed as increase in plasma adiponectin level administered po qd for 31 days measured on day 32 by ELISA", "assay_type": "functional, organism-based"}, "[16]": {"system": "Rattus norvegicus", "assay": "Toxicity in […] model assessed as serum ALT level at 10 mg/kg, po qd for 31 days measured on day 32 (reference value: 127 +/- 9 U/L)", "assay_type": "organism-based", "settings": "in vivo, 744 h"}, "[17]": {"system": "Rattus norvegicus", "assay": "Toxicity in Zucker rat sub-chronic fa/fa prediabetic model assessed as triglyceride level per gram liver at 3 mg/kg, po qd for 31 days measured on day 32 (reference value: 163.4 +/- 8.3 mg)", "assay_type": "organism-based", "settings": "in vivo, 744 h"}, "[18]": {"system": "Rattus norvegicus", "assay": "Antidiabetic activity in Zucker rat sub-chronic fa/fa prediabetic model assessed as fasting blood glucose level at 1 mg/kg, po qd for 31 days measured on day 29 post dose (reference value: 163 +/- 9.2 mg/dl)", "assay_type": "functional"}, "[19]": {"system": "Rattus norvegicus", "assay": "Effect on PIK3R6 gene expression in epididymal white adipose tissue of Zucker rat sub-chronic fa/fa prediabetic model at 10 mg/kg, po qd for 15 days by microarray analysis relative to control", "assay_type": "functional"}, "[20]": {"assay": "AUC (0 to 24 hrs) in […] model at 10 mg/kg, po qd for 28 days measured on day 28 post last dose", "assay_type": "ADME, organism-based", "design": "time < 24 hr, dose 10 mg/kg, route oral", "settings": "in vivo"}, "[21]": {"system": "Rattus norvegicus", "assay": "Antidiabetic activity in Zucker rat sub-chronic fa/fa prediabetic model assessed as fasting blood insulin level at 1 mg/kg, po qd for 31 days measured on day 29 post dose (reference value: 8.5 +/- 1.4 ug/L)", "assay_type": "functional"}, "[22]": {"system": "Rattus norvegicus", "assay": "Toxicity in […] chronic ob/ob model assessed as change in body weight at 10 mg/kg, po qd for 28 days measured on day 1 to 28 during compound dosing (reference value: 9.9 +/- 1.27 g)", "assay_type": "organism-based", "settings": "in vivo, 672 h"}, "[23]": {"system": "Rattus norvegicus", "assay": "Toxicity in […] chronic ob/ob model assessed as epididymal white adipose tissue weight at 10 mg/kg, po qd for 31 days measured on day 32 (reference value: 3.92 +/- 0.14 g)", "assay_type": "organism-based", "settings": "in vivo, 744 h"}, "[24]": {"system": "Rattus norvegicus", "assay": "Toxicity in Zucker rat sub-chronic fa/fa prediabetic model assessed as food intake at 50 mg/kg, po qd for 29 days measured on day 1 to 29 during compound dosing (reference value: 969 +/- 18 g)", "assay_type": "organism-based", "settings": "in vivo, 696 h"}, "[25]": {"assay": "AUC (0 to 24 hrs) in Zucker rat sub-chronic fa/fa prediabetic model at 3 mg/kg, po qd for 26 days measured on day 26 post last dose", "assay_type": "ADME, organism-based", "design": "time < 24 hr, dose 3 mg/kg, route oral", "settings": "in vivo"}, "[26]": {"system": "Rattus norvegicus", "assay": "Effect on Ckmt1 gene expression in epididymal white adipose tissue of Zucker rat sub-chronic fa/fa prediabetic model at 10 mg/kg, po qd for 15 days by microarray analysis relative to control", "assay_type": "functional"}, "[27]": {"system": "Rattus norvegicus", "assay": "Toxicity in […] model assessed as serum ALT level at 3 mg/kg, po qd for 31 days measured on day 32 (reference value: 127 +/- 9 U/L)", "assay_type": "organism-based", "settings": "in vivo, 744 h"}, "[28]": {"assay": "Terminal half life in […] at 15 mg/kg administered via oral gavage by LC-MS analysis", "assay_type": "ADME, organism-based", "settings": "in vivo, read-out: beta t1/2 (converted)"}, "[29]": {"assay": "Cmax in […] chronic ob/ob model at 10 mg/kg, po qd measured on day 1 post dose", "assay_type": "ADME, organism-based", "design": "dose 10 mg/kg, route oral", "settings": "in vivo"}, "[30]": {"system": "Rattus norvegicus", "assay": "Antidiabetic activity in Zucker rat sub-chronic fa/fa prediabetic model assessed as serum adiponectin level at 1 mg/kg, po qd for 4 days by ELISA (reference value: 9.1%)", "assay_type": "functional"}, "[31]": {"assay": "Cmax in Zucker rat sub-chronic fa/fa prediabetic model at 1 mg/kg, po qd measured on day 1 post dose", "assay_type": "ADME, organism-based", "design": "dose 1 mg/kg, route oral", "settings": "in vivo"}, "[32]": {"system": "Rattus norvegicus", "assay": "Effect on YWHAG gene expression in epididymal white adipose tissue of Zucker rat sub-chronic fa/fa prediabetic model at 10 mg/kg, po qd for 15 days by microarray analysis relative to control", "assay_type": "functional"}, "[33]": {"system": "Rattus norvegicus", "assay": "Effect on TNFRSF1B gene expression in epididymal white adipose tissue of Zucker rat sub-chronic fa/fa prediabetic model at 10 mg/kg, po qd for 15 days by microarray analysis relative to control", "assay_type": "functional"}, "[34]": {"system": "Rattus norvegicus", "assay": "Increase in ANGPTL4 mRNA expression in epididymal white adipose tissue of Zucker rat sub-chronic fa/fa prediabetic model at 10 mg/kg, po qd for 15 days by RT-PCR method", "assay_type": "functional, organism-based"}, "[35]": {"system": "Rattus norvegicus", "assay": "Effect on TGFB1 gene expression in epididymal white adipose tissue of Zucker rat sub-chronic fa/fa prediabetic model at 10 mg/kg, po qd for 15 days by microarray analysis relative to control", "assay_type": "functional"}}, "note": "Calls of active or inactive are those of the source. The calls are words filed in the database; no cut-off is given here.", "data": [{"smiles": "CN1CC[C@@H](N2C(=O)S/C(=C\\c3ccc4c(cnn4Cc4ccc(Cl)cc4C(F)(F)F)c3)C2=O)[C@H](F)C1", "values": [{"measurement": "Activity", "setting": "[1]", "value": "Non-Toxic"}, {"measurement": "AUC(0-t) at 24 h", "setting": "[2]", "value": 92000, "unit": "ng·h/mL"}, {"measurement": "half-life", "setting": "[3]", "value": 486, "unit": "min"}, {"measurement": "fold change (FC)", "setting": "[4]", "value": 1.568}, {"measurement": "fold change (FC)", "setting": "[5]", "value": -1.825}, {"measurement": "fold change (FC)", "setting": "[6]", "value": 2.409}, {"measurement": "Activity", "setting": "[7]", "value": 69.4, "unit": "mg"}, {"measurement": "fold change (FC)", "setting": "[8]", "value": 2.352}, {"measurement": "Cmax", "setting": "[9]", "value": 7660, "unit": "ng/mL"}, {"measurement": "Activity", "setting": "[10]", "value": 27017, "unit": "mg·min/dL"}, {"measurement": "Activity", "setting": "[11]", "value": 0.57, "unit": "mg/dL"}, {"measurement": "fold change (FC)", "setting": "[12]", "value": 1.383}, {"measurement": "Cmax", "setting": "[13]", "value": 454, "unit": "ng/mL"}, {"measurement": "fold change (FC)", "setting": "[14]", "value": 1.803}, {"measurement": "Activity", "setting": "[15]", "value": "Dose-dependent effect"}, {"measurement": "Activity", "setting": "[16]", "value": 135, "unit": "U/L"}, {"measurement": "Activity", "setting": "[17]", "value": 124.7, "unit": "mg"}, {"measurement": "Activity", "setting": "[18]", "value": 123, "unit": "mg/dL"}, {"measurement": "fold change (FC)", "setting": "[19]", "value": -1.276}, {"measurement": "AUC at 24 h", "setting": "[20]", "value": 5910, "unit": "ng·h/mL"}, {"measurement": "Activity", "setting": "[21]", "value": 5, "unit": "µg/L"}, {"measurement": "Activity", "setting": "[22]", "value": 8.7, "unit": "g"}, {"measurement": "Activity", "setting": "[23]", "value": 3.29, "unit": "g"}, {"measurement": "Activity", "setting": "[24]", "value": 1049, "unit": "g"}, {"measurement": "AUC at 24 h", "setting": "[25]", "value": 10800, "unit": "ng·h/mL"}, {"measurement": "fold change (FC)", "setting": "[26]", "value": -1.374}, {"measurement": "Activity", "setting": "[27]", "value": 172, "unit": "U/L"}, {"measurement": "half-life", "setting": "[28]", "value": 402, "unit": "min"}, {"measurement": "Cmax", "setting": "[29]", "value": 520, "unit": "ng/mL"}, {"measurement": "Activity", "setting": "[30]", "value": 8.6, "unit": "%"}, {"measurement": "Cmax", "setting": "[31]", "value": 262, "unit": "ng/mL"}, {"measurement": "fold change (FC)", "setting": "[32]", "value": 1.255}, {"measurement": "fold change (FC)", "setting": "[33]", "value": -1.505}, {"measurement": "Activity", "setting": "[34]", "value": "Active"}, {"measurement": "fold change (FC)", "setting": "[35]", "value": -1.47}]}]}
